Reference: US8278296B2, “Manipulation of brain CDP-diacylglycerol and uses thereof” (priority 2006, dated 2012)
“Also recorded” adds a separate entry of the source.

Key:
CDP-diacylglycerol = experiment: [3H]CDP-diacylglycerol accumulation in rat brain slices; assay type: cell-based; conditions: for effect on CDP-diacylglycerol accumulation: rat cerebrocortical slices, 0.1-300 μM, other psychotropic compounds
[1] = test system: phosphoinositide-specific phospholipase C / PI metabolism; experiment: Blockade of PI hydrolysis (neomycin, U73122) on antidepressant-induced CDP-DG, PI and IP responses in brain slices; assay type: cell-based, rat
rats = experiment: Forced swim test; assay type: in vivo, rat; conditions: for effect of neomycin pretreatment on immobility-reducing effects of antidepressant drugs: imipramine, fluoxetine, maprotiline
Experimental: One group of rats was acclimated once in the swim chamber and subgroups of three animals each were administered indicated doses (corresponding to 0, 3, 10, and 30 mg/kg) of imipramine at 24, 3, and 1 h before behavioral testing (conventional regimen). The other group of rats from the same batch was acclimated twice at 48 and 24 h before the time of testing and subgroups were administered the same doses of imipramine at 3 and 1 h before behavioral testing. Animals in each group were then tested in the forced swim apparatus for 5 min and the immobility times determined. […] Each bar is the mean±SEM (n=6). […] Animals were prepared as in FIG. 14 for the modified regimen. […] Test drugs were administered at indicated doses 3 and 1 h before behavioral testing. […] Immobility response data for set one were analyzed by one-way ANOVA (response by dose) in order to determine if the drug by itself produced significant effects. Data for set two were analyzed by one-way ANOVA (response by group, where group comprised control, neomycin, drug, neomycin+drug), followed by posthoc Tukey tests. […] The forced swim test (FST) was applied with some modifications. Rats were transferred to the testing room between 9:00-10:00 AM and allowed at least an hour before being placed individually into translucent polypropylene cylinders (46 cm tall×25 cm in diameter) containing 27 cm depth of water maintained at 25° C. […] After 15 min in the water, the rats were removed, toweled, and allowed to dry in a warm environment before being returned to their home cage. This acclimation step was repeated after 24 h, with the exposure time reduced from 15 to 5 min. […] During the second acclimation exposure, the duration of immobility was recorded for each animal. […] To adjudge that a rat had become immobile, the animal had to float passively in the water in a slightly hunched, but upright position, making only minimal movements necessary to keep its head above the water (65-66). On the third day when animals were to undergo experimental assessment, saline or the indicated antidepressant agents were administered i.p. at 3 h and at 1 h before behavioral testing. The drugs were dissolved in distilled-deionized water and diluted in saline. Control subjects received 0.9% saline. […] Data were analyzed by one-way analysis of variance (ANOVA).

For `N[C@@H]1C[C@H]1c1ccccc1` (racemic) [tranylcypromine], the “effect on CDP-DG accumulation” value (CDP-diacylglycerol; frontal cortex slices, MAOIs) was “statistically significant but modest effects”.

In the case of `[Cl-].[Li+]` [LiCl, lithium chloride], the “effect on antidepressant drug-induced [3H]CDP-diacylglycerol production” value (CDP-diacylglycerol; 5 mM LiCl present or absent, fluoxetine or imipramine, frontal cortex or hippocampus, 60 min) is reported as “did not significantly enhance or inhibit; also recorded: did not significantly alter”.

`COc1ccc2c(c1)CC[C@@H]1[C@@H]2CC[C@]2(C)[C@@H](NCCCCCCN3C(=O)C=CC3=O)CC[C@@H]12` [U73122] was tested, and the “inhibition of antidepressant-stimulated IP accumulation” value ([1]; 100 μM fluoxetine or 300 μM imipramine, paroxetine, maprotiline, nomifensine, hippocampal or cortical slices) was “completely blocked”, the “inhibition of antidepressant drug effects on CDP-DG production” value ([1]; 0.1 to 10 μM U73122, cortical or hippocampal slices) was “significantly reduced, but was unable to completely block; also recorded: only partially reduced” and the “effect of inhibitor by itself on basal CDP-DG production” value ([1]; U73122 alone) was “did not significantly alter; also recorded: no significant effect”. The “effect of inhibitor by itself on basal IP accumulation” value ([1]; U73122 alone) was “did not significantly alter; also recorded: no significant effect” and the “inhibition of SKF38393-induced IP accumulation” value ([1]; brain slices) was “blocked”.

`COc1ccc2c(c1)CC[C@@H]1[C@@H]2CC[C@]2(C)[C@@H](NCCCCCCN3C(=O)CCC3=O)CC[C@@H]12` [U73123] was tested, and the “effect on CDP-DG or IP responses” value ([1]; inactive analog control, data not shown) was “without effect”.

In the case of `CN1[C@@H]2CC[C@H]1C[C@@H](OC(c1ccccc1)c1ccccc1)C2` [benztropine], the “effect on CDP-diacylglycerol accumulation” value (CDP-diacylglycerol) is reported as “No significant effects or concentration-related effects”.

`CN(C)CCCN1c2ccccc2Sc2ccc(Cl)cc21` [chloropromazine] was tested, and the “effect on CDP-diacylglycerol accumulation” value (CDP-diacylglycerol) was “No significant effects or concentration-related effects”.

For `CN1C(=O)CN=C(c2ccccc2)c2cc(Cl)ccc21` [diazepam], the “effect on CDP-diacylglycerol accumulation” value (CDP-diacylglycerol) was “No significant effects or concentration-related effects”.

In the case of `OCCN1CCN(CC/C=C2/c3ccccc3Sc3ccc(C(F)(F)F)cc32)CC1` [flupenthioxol], the “effect on CDP-diacylglycerol accumulation” value (CDP-diacylglycerol) is reported as “No significant effects or concentration-related effects”.

`O=C(CCCN1CCC(O)(c2ccc(Cl)cc2)CC1)c1ccc(F)cc1` [haloperidol] was tested, and the “effect on CDP-diacylglycerol accumulation” value (CDP-diacylglycerol) was “No significant effects or concentration-related effects”.

With `NO` [hydroxylamine] the “effect on CDP-diacylglycerol accumulation” value (CDP-diacylglycerol) was “No significant effects or concentration-related effects”.

`O=C1CN=C(c2ccccc2)c2cc([N+](=O)[O-])ccc2N1` [nitrazepam] was tested, and the “effect on CDP-diacylglycerol accumulation” value (CDP-diacylglycerol) was “No significant effects or concentration-related effects”.

With `CN1Cc2c(N)cccc2C(c2ccccc2)C1` (centres unmarked) [nomifensine] the “effect on [3H]CDP-diacylglycerol accumulation” value (CDP-diacylglycerol; rat hippocampal, prefrontal cortical and striatal slices, LiCl present, 90 min) was “significantly and dose-dependently enhanced”.

With `C#CCN(C)Cc1ccccc1` [pargyline] the “effect on CDP-diacylglycerol accumulation” value (CDP-diacylglycerol) was “No significant effects or concentration-related effects”.

`Fc1ccc([C@@H]2CCNC[C@H]2COc2ccc3c(c2)OCO3)cc1` [paroxetine] was tested, and the “sensitivity of drug effects to inhibition by U73122” value ([1]; compared with tricyclic agents) was “more sensitive”.

`O=C1NC(=O)C(c2ccccc2)(c2ccccc2)N1` [phenytoin] was tested, and the “effect on CDP-diacylglycerol accumulation” value (CDP-diacylglycerol) was “No significant effects or concentration-related effects”.

With `CCN(CC)CCCC(C)Nc1c2ccc(Cl)cc2nc2ccc(OC)cc12` (centres unmarked) [quinacrine] the “effect on CDP-diacylglycerol accumulation” value (CDP-diacylglycerol) was “No significant effects or concentration-related effects”.

`C#CCN(C)[C@H](C)Cc1ccccc1` [selegiline] was tested, and the “effect on CDP-diacylglycerol accumulation” value (CDP-diacylglycerol) was “No significant effects or concentration-related effects”.

In the case of `CCN1CCCC1CNC(=O)c1cc(S(N)(=O)=O)ccc1OC` (centres unmarked) [sulpiride], the “effect on CDP-diacylglycerol accumulation” value (CDP-diacylglycerol) is reported as “No significant effects or concentration-related effects”.

With neomycin the “effect of neomycin on SKF38393-induced decrease of immobility times” value (rats; iv 2 h prior to testing) was “blocked”, the “effect of neomycin pretreatment on immobility-reducing effects of antidepressant drugs” value (rats; iv 2 h prior to testing) was “completely reversed” and the “effect of neomycin pretreatment on immobility-reducing effects of antidepressant drugs” value (rats; iv 2 h prior to testing, listed as Neomycin) was “abolished”. The “effect of neomycin by itself on basal immobility times” value (rats; iv tail vein 2 h prior to testing) was “did not significantly alter”.
